This test concerns male ICR mice. The experiment in a line: Formalin Paw Test. The format is in vivo, mouse. Particulars: 30 mg/kg, intraperitoneal administration; for Early Phase: early/acute phase (0-10 minutes) after 2% formalin into hind paw; for Late Phase: late/tonic phase (10-35 minutes) after 2% formalin into hind paw. On the procedure: One test compound or the vehicle was administered to each mouse in each test group (8 mice per group). Non-fasted male ICR mice weighing 23±3 g were used. Test compounds were administered at a concentration of 3 mg/kg, 10 mg/kg, 15 mg/kg, 30 mg/kg, 60 mg/kg, 100 mg/kg, 200 mg/kg or 300 mg/kg; morphine was administered at a concentration of 5 mg/kg; and acetaminophen was administered at a concentration of 200 mg/kg. The control group received the vehicle (5% DMSO/40% PEG400/20% HPbCD/Saline). After 30 or 60 minutes, a 2% formalin solution (0.02 mL) was injected into one hind paw (sub-plantar) of each mouse. Responses were measured every 5 minutes after the formalin injection for 35 minutes.
The results in Table A are for intraperitoneal administration. In Table A, ‘A’ designates <70 licks/sec, ‘B’ designates ≥70 licks/sec and <165 licks/sec, and ‘C’ designates ≥165 licks/sec.

In the case of `NC1CCC(F)(F)C1` (centres unmarked) [Compound 8], the “Early Phase” value is “B (‘B’ designates ≥70 licks/sec and <165 licks/sec)”; the “Late Phase” value is “B (‘B’ designates ≥70 licks/sec and <165 licks/sec)”.
On to `NC1CC2(C1)CC(N)C2` (centres unmarked) [Compound 13], for which the “Early Phase” value is “B (‘B’ designates ≥70 licks/sec and <165 licks/sec)”; the “Late Phase” value was “B (‘B’ designates ≥70 licks/sec and <165 licks/sec)”.
Turning to `NC1CCCCCC1` [Compound 11], the “Early Phase” value is recorded as “A (‘A’ designates <70 licks/sec)” and the “Late Phase” value is reported as “C (‘C’ designates ≥165 licks/sec)”.
As to `NCC1CC(F)(F)C1` [Compound 6], the “Early Phase” value is “B (‘B’ designates ≥70 licks/sec and <165 licks/sec)”; the “Late Phase” value is “B (‘B’ designates ≥70 licks/sec and <165 licks/sec)”.
As to `N[C@H]1C[C@@H](O)C1` [cis-1], the “Early Phase” value is “B (‘B’ designates ≥70 licks/sec and <165 licks/sec)”; the “Late Phase” value is given as “C (‘C’ designates ≥165 licks/sec)”.
Take `CC12CC3CC(C)(C1)CC(N)(C3)C2` [Compound 19]: the “Early Phase” value is listed as “A (‘A’ designates <70 licks/sec)” and the “Late Phase” value is on record as “A (‘A’ designates <70 licks/sec)”.
In the case of `NC12CCC(C(F)(F)F)(CC1)CC2` [Compound 18], the “Early Phase” value was “B (‘B’ designates ≥70 licks/sec and <165 licks/sec)”; the “Late Phase” value is “B (‘B’ designates ≥70 licks/sec and <165 licks/sec)”.
In the case of `NC1CCCC(C(F)(F)F)C1` (centres unmarked) [Compound 10], the “Early Phase” value is given as “A (‘A’ designates <70 licks/sec)” and the “Late Phase” value is reported as “A (‘A’ designates <70 licks/sec)”.
In the case of `NC1CCC(F)(F)CC1` [Compound 9], the “Early Phase” value is “A (‘A’ designates <70 licks/sec)” and the “Late Phase” value is reported as “A (‘A’ designates <70 licks/sec)”.
For the compound `NC1CC(F)(F)C1` [Compound 2], the “Early Phase” value was “B (‘B’ designates ≥70 licks/sec and <165 licks/sec)”; the “Late Phase” value was “B (‘B’ designates ≥70 licks/sec and <165 licks/sec)”.
`N[C@H]1C[C@H](O)C1` [trans-1]: the “Early Phase” value is “B (‘B’ designates ≥70 licks/sec and <165 licks/sec)”; the “Late Phase” value is reported as “C (‘C’ designates ≥165 licks/sec)”.
Take `NC12CC3CC(C1)CC(C(F)(F)F)(C3)C2` [Compound 20]: the “Early Phase” value was “A (‘A’ designates <70 licks/sec)” and the “Late Phase” value is “A (‘A’ designates <70 licks/sec)”.
Regarding `NC1CC2(C1)CC(O)C2` (centres unmarked) [Compound 14], the “Early Phase” value was “B (‘B’ designates ≥70 licks/sec and <165 licks/sec)”; the “Late Phase” value is “B (‘B’ designates ≥70 licks/sec and <165 licks/sec)”.
